Measurements reported in patent publication US20220062247A1, “USE OF A PAR-1 ANTAGONIST FOR THE TREATMENT OF A CHRONIC INFLAMMATORY INTESTINAL DISEASE” (CVASTHERA, priority 2018, published 2022).

Key:
[1] = tested on: inflammatory bowel disease, Dextran Sulphate sodium (DSS); experiment: Dextran Sulphate sodium (DSS) model of inflammatory bowel disease in mice (body weight, DAI, macroscopic damage score, MPO); assay type: in vivo, mice (C57B16); design: Disease activity index, D1 / Disease activity index, D2 / Disease activity index, D3 / Disease activity index, D4 / Disease activity index, D5 / Disease activity index, D6 / Disease activity index, D7 / macroscopic damage score: scale not given here
Text: The purpose of this study is to assess the effectiveness of a PAR-1 antagonist according to the invention, 3-2-(chloro-phenyl)-1-[4-(4-fluoro-benzyl)-piperazine-1-yl]propenone (CSI) in a model of an inflammatory bowel disease, Dextran Sulphate sodium (DSS) in mice. This DSS model is described in the publication of Choi et al., 2010, in J. Biomed. Biotechnol., 2010:943516; doi: 10.1155/2010/943516.
This model features a cytokine profile Th1 in its acute phase, periods of remission and relapses, it is consequently very similar to ulcerous colitis. The DSS distributed in the drinking water can cause an inflammation of the digestive tract and produce colorectal tumours in the rodent. The DSS is widely used as an animal model of human inflammatory diseases of the digestive tract.
The present study is conducted in 7-week-old mice (C57B16). The 5-aminosalicylic acid serves as a positive comparative example.
The first day of the study starts with the daily administration of a beverage containing DSS at 5% p/p in water to the mice, until the day of sacrifice. The development of the disease is estimated on a daily basis, with accurate weighting of the mice, the assessment of the consistence of the excrements as well as the presence of blood in the faeces with the Hemoccult® paper test. The DAI score is calculated as indicated in Example 1.
Each day, groups of mice receive per os CSI at different concentrations, or 5-aminosalicylic acid (5-ASA), or the vehicle alone, that is to say carboxymethyl cellulose (CMC) at 1%.
The mice are sacrificed 7 days after the beginning of the treatment. The colon is excised and the macroscopic damages are assessed. The colon is then cut into 4 pieces, the distal portion is placed in an Eppendorf tube and stored at −80° C. until the measurement of the activity of myeloperoxidase and the quantification of proteins. The proximal portion is kept in formaline at 10% for future histological analyses. The two other central portions are placed in Eppendorf tubes and stored at −80° C. for future analyses.
On day 7, after having sacrificed the animals, the colon is removed. The macroscopic damage score, assessed as described in Example 1, and the myeloperoxidase (MPO) activity are determined.

[2] = tested on: inflammatory bowel disease induced by 2,4,6-trinitrobenzenesulfonic acid (TNBS); experiment: Colitis induced by intra-colonical TNBS in rats (body weight, DAI score, colon wall thickness, macroscopic damage score, MPO); assay type: in vivo, male laboratory rat of the Wistar strain
Text: The purpose of this study is to assess the effectiveness of two PAR-1 antagonists, vorapaxar and 3-2-(chloro-phenyl)-1-[4-(4-fluoro-benzyl)-piperazine-1-yl]propenone (hereinafter, referred to as CSI) in a model of an inflammatory bowel disease induced by 2,4,6-trinitrobenzenesulfonic acid (TNBS) in a male laboratory rat of the Wistar strain. This model is described in the publication of Whittle et al., 2003, in Methods Mol. Biol., 225, 209-222.
In this induced colitis model, the inflammatory reaction is measured every day and is well established 7 days after intra-colonical administration of TNBS.
(§1) Different parameters are measured: the weight of the rats, the presence of blood in the faeces and the diarrhoeas assessed by the disease activity index (DAI score), the intensity of pain (assessed by Von Frey filaments technique measured on days 3 and 7).
The rats are sacrificed 7 days after the beginning of the treatment and the macroscopic damages, the oedema and a marker of the inflammation, myeloperoxidase (MPO), are quantified.
The experiments with the PAR-1 antagonists are carried out in two studies, relating to vorapaxar and CSI, respectively.
The colitis is induced by intra-colonical administration of 2,4,6-trinitrobenzenesulfonic acid (TNBS) (30 mg of TNBS in 0.25 ml of a 50% ethanol/NaCl solution) via a catheter (polyethylene (PE)-60) inserted 8 cm proximally from the anus.
Four groups of 10 rats receive an intra-colonical administration of TNBS, as well as a per os treatment of vorapaxar at the dose of 2.5 mg/kg/day or of CSI at doses of 10 and 40 mg/kg/day or of prednisolone (a compound proposed by the prior art for the treatment of IBDs) at the dose of 3 mg/kg/day. The per os treatments start 1 h before the intra-colonical administration of TNBS.
As a negative comparative example, 1 group of 10 rats receives an intra-colonical administration of TNBS and of the vorapaxar vehicle (phosphate buffered saline—PBS) or of the CSI vehicle (carboxymethyl cellulose—CMC at 1%) per os daily.
Moreover, 1 group of 6 control rats receives an intra-colonical administration of NaCl instead of TNBS.
The DAI score is determined as follows. The development of the disease is estimated on a daily basis. The consistence of the excrements, as well as the presence of blood in the faeces assessed with the Hemoccult® paper test, are respectively quantified by the seriousness scales of Table 3 hereinbelow. The obtained values are added together to obtain the DAI score.
The macroscopic damage score is assessed according to the protocol described in the publication of Comera et al., 1999, Dig. Dis. Sci. 44: 1448-1457, as follows. On day 7 after induction of the colitis, the rats are sacrificed by carbon dioxide CO2 inhalation, the colon (from the anus to the Caecum) is removed and the macroscopic damages are assessed according to the parameters observed and presented in Table 4 hereinbelow, to determine the macroscopic damage score.

[3] = tested on: nociceptive response induced by TNBS; experiment: Nociceptive response (allodynia) by Von Frey filaments technique in TNBS colitis rats; assay type: in vivo, rat; settings: 3 mg/kg/day, 7 days after colitis induction
Method: as §1
The intensity of the pain is measured by the Von Frey filaments technique on days […], according to the protocol described in the publication of Auge et al., 2013, Eur. J. Pharmacol. 707: 32-40.
The effect on the nociceptive response, measured by Von Frey filaments technique according to the mass of Von Frey filaments, is shown in FIG. 10 for prednisolone and in FIG. 11 for vorapaxar.

[4] = DSS 5%, Group 5, 50 mg/kg/24 h per os, Moy
[5] = DSS mice, 50 mg/kg daily oral (Group 5), all observed points
[6] = DSS 5%, Group 2, 10 mg/kg/24 h per os, Moy
[7] = DSS 5%, Group 3, 40 mg/kg/24 h per os, Moy

SMILES: Nc1ccc(O)c(C(=O)O)c1 [5-ASA, 5-aminosalicylic acid, reference compound]
- Disease activity index, D1 [1, 4]: 1.64
- Disease activity index, D2 [1, 4]: 1.25
- Disease activity index, D3 [1, 4]: 1.92
- Disease activity index, D4 [1, 4]: 3.50
- Disease activity index, D5 [1, 4]: 4.00
- Disease activity index, D6 [1, 4]: 4.00
- Disease activity index, D7 [1, 4]: 3.20
- Variation of the body weight of the mice in comparison with day D0, D1-D0 [1, 4]: 0.64 g
- Variation of the body weight of the mice in comparison with day D0, D2-D0 [1, 4]: 0.64 g
- Variation of the body weight of the mice in comparison with day D0, D3-D0 [1, 4]: 1.05 g
- Variation of the body weight of the mice in comparison with day D0, D4-D0 [1, 4]: -0.03 g
- Variation of the body weight of the mice in comparison with day D0, D5-D0 [1, 4]: -1.67 g
- Variation of the body weight of the mice in comparison with day D0, D6-D0 [1, 4]: -3.68 g
- Variation of the body weight of the mice in comparison with day D0, D7-D0 [1, 4]: -4.76 g
- macroscopic damage score ([1]; DSS 5%, Group 5, 50 mg/kg/24 h per os, day 7, Moy): 6.5
- MPO activity ([1]; DSS 5%, Group 5, 50 mg/kg/24 h per os, day 7, colon, Moy): 9.34 mU/mg proteins
- macroscopic damage score ([1]; DSS mice, 50 mg/kg (Group 5), vs vehicle group (Group 4)): significantly reduces
- increase of the disease activity index [1, 5]: prevents neither
- weight loss [1, 5]: prevents neither

SMILES: O=C(/C=C/c1ccccc1Cl)N1CCN(Cc2ccc(F)cc2)CC1 [CSI, 3-2-(chloro-phenyl)-1-[4-(4-fluoro-benzyl)-piperazine-1-yl]propenone]
- Disease activity index, D1 [1, 6]: 1.40
- Disease activity index, D2 [1, 6]: 1.35
- Disease activity index, D3 [1, 6]: 2.00
- Disease activity index, D4 [1, 6]: 3.75
- Disease activity index, D5 [1, 6]: 4.00
- Disease activity index, D6 [1, 6]: 4.00
- Disease activity index, D7 [1, 6]: 2.90
- Variation of the body weight of the mice in comparison with day D0, D1-D0 [1, 6]: 0.67 g
- Variation of the body weight of the mice in comparison with day D0, D2-D0 [1, 6]: 0.44 g
- Variation of the body weight of the mice in comparison with day D0, D3-D0 [1, 6]: 0.45 g
- Variation of the body weight of the mice in comparison with day D0, D4-D0 [1, 6]: -0.42 g
- Variation of the body weight of the mice in comparison with day D0, D5-D0 [1, 6]: -2.15 g
- Variation of the body weight of the mice in comparison with day D0, D6-D0 [1, 6]: -3.79 g
- Variation of the body weight of the mice in comparison with day D0, D7-D0 [1, 6]: -5.19 g
- macroscopic damage score ([1]; DSS 5%, Group 2, 10 mg/kg/24 h per os, day 7, Moy): 5.2
- MPO activity ([1]; DSS 5%, Group 2, 10 mg/kg/24 h per os, day 7, colon, Moy): 12.99 mU/mg proteins
- Disease activity index, D1 [1, 7]: 2.00
- Disease activity index, D2 [1, 7]: 1.10
- Disease activity index, D3 [1, 7]: 1.50
- Disease activity index, D4 [1, 7]: 2.80
- Disease activity index, D5 [1, 7]: 4.00
- Disease activity index, D6 [1, 7]: 4.00
- Disease activity index, D7 [1, 7]: 3.00
- Variation of the body weight of the mice in comparison with day D0, D1-D0 [1, 7]: -0.08 g
- Variation of the body weight of the mice in comparison with day D0, D2-D0 [1, 7]: -0.07 g
- Variation of the body weight of the mice in comparison with day D0, D3-D0 [1, 7]: -0.19 g
- Variation of the body weight of the mice in comparison with day D0, D4-D0 [1, 7]: -0.68 g
- Variation of the body weight of the mice in comparison with day D0, D5-D0 [1, 7]: -1.07 g
- Variation of the body weight of the mice in comparison with day D0, D6-D0 [1, 7]: -2.69 g
- Variation of the body weight of the mice in comparison with day D0, D7-D0 [1, 7]: -4.00 g
- macroscopic damage score ([1]; DSS 5%, Group 3, 40 mg/kg/24 h per os, day 7, Moy): 4.0
- MPO activity ([1]; DSS 5%, Group 3, 40 mg/kg/24 h per os, day 7, colon, Moy): 6.9 mU/mg proteins
- disease activity index ([1]; DSS mice, 10 mg/kg daily (Group 2), 7th day): significantly reduces
- MPO activity ([1]; DSS mice, 40 mg/kg (Group 3)): strongly reduced
- disease activity index ([1]; DSS mice, 40 mg/kg (Group 3), 4th and 7th day, vs vehicle group (Group 4)): significantly reduced
- weight loss ([1]; DSS mice, 40 mg/kg (Group 3), 6th day): significantly reduces
- daily signs of colitis ([1]; DSS mice, 10 and 40 mg/kg, seems more effective than 5-ASA): reduces, significantly and in a dose-dependent way
- macroscopic damage score ([1]; DSS mice, both tested doses 10 and 40 mg/kg (Groups 2 and 3), vs vehicle group (Group 4)): significantly reduces
- disease activity index (DAI) ([2]; 10 mg/kg daily, 7th day): significantly reduces
- MPO activity ([2]; 40 mg/kg/day, day 7): significantly reduced
- macroscopic damage score ([2]; 10 and 40 mg/kg/day (tested doses), day 7, vs vehicle group): significantly reduces
- weight loss (body weight) ([2]; 10 or 40 mg/kg/day per os): alleviate

SMILES: C[C@]12C=CC(=O)C=C1CC[C@@H]1[C@@H]2[C@@H](O)C[C@@]2(C)[C@H]1CC[C@]2(O)C(=O)CO [prednisolone]
- apparition of oedema (thickness of the wall of the colon) ([2]; 3 mg/kg daily oral, 7 days): does not prevent
- disease activity index (DAI) ([2]; 3 mg/kg daily oral, all observed points): does not prevent the increase
- macroscopic damage score ([2]; 3 mg/kg, day 7, vs vehicle group): significantly reduces
- weight loss (body weight) ([2]; 3 mg/kg/day per os): alleviate
- MPO activity ([2]; 3 mg/kg/day, day 7, vs vehicle group): significantly reduce
- allodynia-type response (Von Frey) [3]: only a partial inhibition
